Reference: patent US7419789B2, “Method of inhibiting binding of Dengue virus to a human cell with DC-SIGN blockers” (Institut Pasteur, priority 2002, dated 2008)

Test system: DEN-1 virus strain FGA/NA d1d
Test: Inhibition of DC-SIGN-mediated DEN-1 virus infection of THP/DC-SIGN cells, indirect immunofluorescence
Format: cell-based, DEN-1 virus (human monocytic THP/DC-SIGN cells)
Conditions: m.o.i. 5 AP61 FFU/cell
Experimental: Prior to infection, THP-1/DC/SIGN cells were incubated with either Mab 9D12 (dilution 1:50), Mab BD12.5 (20 μg/ml), Mab 1B10.2.6 (20 μg/ml), EDTA (5 mM), mannan (20 μg/ml), or mock-treated (control). Treated cells were infected with DEN-1 virus strain FGA/NA did (5 AP61 FFU/cell) in the presence of reagents for 2 hrs. Viral antigens were detected by indirect immunofluorescence as described in the legend of FIG. 1. The percentages of infected cells 48 h post-infection are indicated. Values represent the mean of triplicate assays ±SD.
Cells were washed once with RPMI 1640, incubated with highly purified virus in RPMI 1640 supplemented with 0.2% bovine serum albumine (BSA, pH 7.5) (Sigma) for 2 hrs at 37° C. and placed into fresh media supplemented with 2% FCS, 2 mM L-glutamine and antibiotics Peni/Strepto at 37° C. for 40 hrs.
The percentage of cells expressing viral antigen was determined using either DEN-1 virus-specific hyperimmune mouse ascites fluid (HMAF) 9801 (strain Hawaï), WN virus-specific HMAF 0801 (strain IS-98-ST1), or YF virus-specific HMAF. 9803 (strain FNV) with dilution of 1:50, by indirect immunofluorescence as previously described (Desprès et al., J. Virol., 70: 4090, 1996). […]

Molecule | reduction of FGA/NA d1d infectivity (20 μg/ml) [%] | infectivity of DEN-1 virus in preincubated THP/DC-SIGN cells (EDTA 5 mM, Mab 20 μg/ml)
mannan | 75 | –
O=C(O)CN(CCN(CC(=O)O)CC(=O)O)CC(=O)O [EDTA] | – | essentially abolished
